Measurements as given in patent publication US20260115162A1, “COMPOSITION OR ASSOCIATION OF COMPOUNDS PREFERABLY FOR USE IN THE TREATMENT OF NERVOUS DISEASES IN PARTICULAR NEURODEGENERATIVE DISEASES, METHOD FOR THE PREPARATION OF SUCH COMPOSITION OR ASSOCIATION OF COMPOUNDS AND USES THEREOF” (PHARMACEUTICA SAN MARCO S.R.L., priority 2022, published 2026).
Where “and” joins values, the source holds several entries; their conditions need not be identical. Equal values may be shown once.

Tests used:
catG (cathepsin G) = molecular target: T1, catG (cathepsin G) (Homo sapiens, UniProt P08311); conditions: in vitro; read-out: IC50 catG (cathepsin G) inhibition; cited from earlier work
T1 sequence (P08311 21-244): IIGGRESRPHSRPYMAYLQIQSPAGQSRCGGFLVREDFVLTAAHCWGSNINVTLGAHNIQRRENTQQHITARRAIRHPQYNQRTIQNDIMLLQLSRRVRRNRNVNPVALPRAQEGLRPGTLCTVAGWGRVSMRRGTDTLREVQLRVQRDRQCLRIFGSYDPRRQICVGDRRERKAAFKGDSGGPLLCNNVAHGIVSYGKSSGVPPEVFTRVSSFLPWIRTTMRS

[1] = patients, via os; cited from earlier work
intact mice = test: Behavioral tests on intact animals (open field, freezing); format: in vivo
Procedure: The trials were performed at the Department of Clinical and Experimental Medicine of the University of Foggia according to the following rationale. • 1. In the present mouse model of beta-amyloid toxicity, using validated tests in mice, we evaluated the behaviors: • a. antidepressant: Tail Suspension Test (TST); Forced Swimming Test (FST); Splash Test (ST) with latency time (sec) and self-care (sec) measurement. • b. antianxiety: Open Field Test with measurement of distance traveled (m), time spent in the wall (sec), time spent in the center (sec), center entries (n); Freezing Test (sec). • c. on memory, learning, coordination of motor skills, fear conditioning: Rotarod Test with measure of Latency to Fall, repeated after training to evaluate motor learning. • 2. We tested the protective effects with the following procedure: • a. individually: βCP, FE, βBA, DHA and HA4; • b. in association with pairs: βCP+HA4, FE+HA4, βBA+HA4, FE+βCP, βBA+FE, βBA+βCP. • c. in association, all four together: βCP+FE+βBA+HA4 • d. versus control (SHAM), • e. using the mouse model of an Aβ-induced depressive phenotype. • 3. These behavioral tests were integrated with serotonin, dopamine, noradrenaline and their metabolites prefrontal cortex and hippocampus measurement. • 4. Furthermore, we evaluated the cortical and hippocampal glutamate (GLU) levels in mice treated with AP and subsequently we tested the ability of βCP, FE, βBA and HA4, to modulate this neurochemical parameter.
βCP, FE e βBA (Merck, Cayman Chemical Company) was dissolved in sunflower oil, this vehicle was chosen in order to maintain a better tasting and higher density of the final solution thus reducing reflux through the digestive tract.
Ten μl of the solution (or vehicle alone) were administered sublingually to mice. Brain βCP, FE e βBA were quantified in a separate subset of mice at 5, 15 and 30 min after their administration.
Open Field Test. Mice were placed in an open field arena and allowed to explore for 30 min [Lama A et al. 2021]. After each trial, the arena floor was cleaned with 70% ethanol to avoid inter-assay bias. The movements of mice were video recorded and analyzed by ANY-maze tracking software (Ugo Basile-Varese, Gemonio, Italy). Locomotion was evaluated through total crossing measurements.

[2] = Blood concentration of βBA by oral-sublingual vs oral-gastro-intestinal route (FIG. 1); format: in vivo, humans
Procedure: FIG. 1. Blood Concentration of βBA Administered by Oral-Sublingual Route Vs. Oral-Gastro-Intestinal Route. • ? 43 a, 58 kg BW • βBA administered both via os and sublingual: 10 mg=172.4 ng/g. • Maximum blood concentration via sublingual route: 95 ng/ml. • Maximum blood concentration via os: 52 ng/ml. • Δos/plasma: 1.82. • Note • 1. […] The explanation is that βBA is an excellent vasodilator, probably through the release of NO nitric oxide [Wang M et al. 2015], synergistic with the other compounds of the composition or association object of the present invention. • 2. […] Note that with the present experiment, the Δos/plasma ratio of 1.82 was the same as that found by Sterk V et al. 2004 (Table 1).

Compound: C[C@H]1[C@H](C)CC[C@]2(C)CC[C@]3(C)C(=CC[C@@H]4[C@@]5(C)CC[C@@H](O)[C@](C)(C(=O)O)[C@@H]5CC[C@]43C)[C@H]12 [βBA, β-boswellic acid]
- IC50 (catG (cathepsin G)): 800 nM
- concentration in the plasma [1]: 2,236 ng/g o ng/ml
- lowest dose showing antidepressant effects (intact mice; intact mice, preliminary experiments (unpublished observations)): 5 mg/kg
- effect in behavioral tests, individually (intact mice; mouse, in vivo): antidepressant and anxiolytic effect
- Maximum blood concentration via sublingual route ([2]; one person, 58 kg BW, 10 mg=172.4 ng/g, sublingual): 95 ng/mL
- Maximum blood concentration via os ([2]; one person, 58 kg BW, 10 mg=172.4 ng/g, via os): 52 ng/mL
- Δos/plasma ([2]; sublingual administration): 1.81 and 1.82
- reduction in blood concentration with respect to the administered dose ([2]; via os): 67% and 70%
- Δos/plasma ([2]; via os administration): 2.97
